Source: US9040524B2, “Antifungal 5,6-dihydro-4H-pyrrolo[1,2-a][1,4]-benzodiazepines and 6H-pyrrolo[1,2-a][1,4]benzodiazepines substituted with bicycle benzene derivatives” (JANSSEN PHARMACEUTICA NV, priority 2010, dated 2015)

Key:
Microsporum canis = test: Antifungal activity in vitro, resazurin growth inhibition screen: Microsporum canis; format: cell-based; conditions: Microsporum canis B68128; read-out: Inf. B pIC50 (converted)
Method in brief: (§1)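 Dilute compounds 2- or 4-fold in DMSO, then in water, and spot onto plates. Add 10^3 cfu of fungus in RPMI-MOPS per well, with the highest test concentration at 64 μM. Score growth by resazurin relative to untreated and medium-only controls.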

[1] = test system: Trichophyton mentagrophytes; test: Antifungal activity in vitro, resazurin growth inhibition screen: Trichophyton mentagrophytes; format: cell-based; conditions: Trichophyton mentagrophytes B70554; read-out: Inf. G pIC50 (converted)
Method in brief: as §1

Trichophyton rubrum = test: Antifungal activity in vitro, resazurin growth inhibition screen: Trichophyton rubrum; format: cell-based; conditions: Trichophyton rubrum B68183; read-out: Inf. C pIC50 (converted)
Method in brief: as §1

Scedosporium apiospermum = test: Antifungal activity in vitro, resazurin growth inhibition screen: Scedosporium apiospermum; format: cell-based; conditions: Scedosporium apiospermum IHEM3817; read-out: Inf. H pIC50 (converted)
Method in brief: as §1

Scedosporium prolificans = test: Antifungal activity in vitro, resazurin growth inhibition screen: Scedosporium prolificans; format: cell-based; conditions: Lomentospora prolificans; Scedosporium prolificans IHEM21157; read-out: Inf. I pIC50 (converted)
Method in brief: as §1

Sporothrix schenkii = test: Antifungal activity in vitro, resazurin growth inhibition screen: Sporothrix schenkii; format: cell-based; conditions: Sporothrix schenkii B62482; read-out: Inf. A pIC50 (converted)
Method in brief: as §1

Aspergillus fumigatus = test: Antifungal activity in vitro, resazurin growth inhibition screen: Aspergillus fumigatus; format: cell-based; conditions: Aspergillus fumigatus B42928; read-out: Inf. E pIC50 (converted)
Method in brief: as §1

Candida parapsilosis = test: Antifungal activity in vitro, resazurin growth inhibition screen: Candida parapsilosis; format: cell-based; conditions: Lodderomyces parapsilosis; Candida parapsilosis B66126; read-out: Inf. D pIC50 (converted)
Method in brief: as §1

Cryptococcus neoformans = test: Antifungal activity in vitro, resazurin growth inhibition screen: Cryptococcus neoformans; format: cell-based; conditions: Cryptococcus neoformans B66663; read-out: Inf. F pIC50 (converted)
Method in brief: as §1

Rhizopus oryzae = test: Antifungal activity in vitro, resazurin growth inhibition screen: Rhizopus oryzae; format: cell-based; conditions: Rhizopus arrhizus; Rhizopus oryzae IHEM5223; read-out: Inf. J pIC50 (converted)
Method in brief: as §1

Rhizomucor miehei = test: Antifungal activity in vitro, resazurin growth inhibition screen: Rhizomucor miehei; format: cell-based; conditions: Rhizomucor miehei IHEM13391; read-out: Inf. K pIC50 (converted)
Method in brief: as §1

| IC50 (Microsporum canis) [nM] | IC50 [1] [nM] | IC50 (Trichophyton rubrum) [nM] | IC50 (Scedosporium apiospermum) [nM] | IC50 (Scedosporium prolificans) [nM] | IC50 (Sporothrix schenkii) [nM] | IC50 (Aspergillus fumigatus) [nM] | IC50 (Candida parapsilosis) [nM] | IC50 (Cryptococcus neoformans) [nM] | IC50 (Rhizopus oryzae) [nM] | IC50 (Rhizomucor miehei) [nM] | melting point [°C] | SMILES |
| --- | --- | --- | --- | --- | --- | --- | --- | --- | --- | --- | --- | --- |
| 1000 | 794 | 437 | 38900 | 1290 | 14100 | 2000 | 2000 | 5010 | > 64600 | 53700 | 206.4 to 208.9 | Clc1cccc2c1CN=C(c1ccc3c(c1)CCO3)c1cccn1-2 [Compound 35, 7-chloro-4-(2,3-dihydro-5-benzofuranyl)-6H-pyrrolo[1,2-a][1,4]benzodiazepine] |
| 490 | 603 | 170 | 120 | 39.8 | 1380 | 46.8 | 1410 | 339 | 2000 | 933 | 180 to 181.5 | Clc1cccc2c1CN=C(c1ccc3c(c1)CCCC3)c1cccn1-2 [Compound 21, 7-chloro-4-(5,6,7,8-tetrahydro-2-naphthalenyl)-6H-pyrrolo[1,2-a][1,4]benzo-diazepine] |
| 257 | 331 | 331 | 32400 | 6170 | 3020 | 1000 | 7940 | 1000 | > 64600 | > 64600 | 190 to 191.8 | Clc1cc(Cl)c2c(c1)-n1cccc1C(c1ccc3c(c1)CCO3)=NC2 [Compound 45, 7,9-dichloro-4-(2,3-dihydro-5-benzofuranyl)-6H-pyrrolo[1,2-a][1,4]benzodiazepine] |
| 170 | 562 | 182 | 447 | 110 | 2240 | 363 | 2880 | 1320 | > 64600 | 4790 | 226.7 to 227.6 | O=C1CCc2cc(C3=NCc4c(Cl)cccc4-n4cccc43)ccc21 [Compound 56, 5-(7-chloro-6H-pyrrolo[1,2-a][1,4]benzodiazepin-4-yl)-2,3-dihydro-1H-inden-1-one] |
| 55000 | > 64600 | 7410 | 933 | 1580 | > 64600 | > 64600 | > 64600 | > 64600 | > 64600 | > 64600 | 224.6 to 246 | O=C1OCc2ccc(C3=NCc4c(F)cccc4-n4cccc43)cc21 [Compound 63, 6-(7-fluoro-6H-pyrrolo[1,2-a][1,4]benzodiazepin-4-yl)-1(3H)-isobenzofuranone] |
| 2040 | 1910 | 1820 | 759 | 589 | 7760 | 372 | 5130 | 10200 | > 64600 | > 64600 | 251.2 to 253 | O=C1OCc2cc(C3=NCc4c(Cl)cccc4-n4cccc43)ccc21 [Compound 65, 5-(7-chloro-6H-pyrrolo[1,2-a][1,4]benzodiazepin-4-yl)-1(3H)-isobenzofuranone] |
| 1580 | 5370 | 1150 | 56200 | 22400 | 9120 | 562 | 22400 | > 64600 | > 64600 | > 64600 | 218.6 to 221 | Cn1c(=O)oc2ccc(C3=NCc4c(Cl)cccc4-n4cccc43)cc21 [Compound 80, 5-(7-chloro-6H-pyrrolo[1,2-a][1,4]benzodiazepin-4-yl)-3-methyl-2(3H)-benzoxazolone] |

| SMILES | IC50 (Microsporum canis) [nM] | IC50 [1] [nM] | IC50 (Trichophyton rubrum) [nM] | IC50 (Scedosporium apiospermum) [nM] | IC50 (Scedosporium prolificans) [nM] | IC50 (Sporothrix schenkii) [nM] | IC50 (Aspergillus fumigatus) [nM] | IC50 (Candida parapsilosis) [nM] | IC50 (Cryptococcus neoformans) [nM] | IC50 (Rhizopus oryzae) [nM] | IC50 (Rhizomucor miehei) [nM] | melting point [°C] |
| --- | --- | --- | --- | --- | --- | --- | --- | --- | --- | --- | --- | --- |
| Cl.Clc1cccc2c1CNC(c1ccc3c(c1)CCC3)c1cccn1-2 (stereo not drawn) [Compound 12, 7-chloro-4-(2,3-dihydro-1H-inden-5-yl)-5,6-dihydro-4H-pyrrolo[1,2-a][1,4]benzo-diazepine .HCl] | 380 | 58.9 | 138 | > 64600 | > 64600 | 64600 | 151 | 575 | 3020 | > 64600 | > 64600 | 242.7 to 243.5 |
